Laboratory results published in ChEMBL document CHEMBL1201862, “PubChem BioAssay data set” (2004).
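Grown in 96-well plates, cells were treated for 48 hours with each compound at five concentrations. Insufficient inhibition: endpoint recorded as highest concentration tested. GI50 = concentration required for 50% inhibition of growth.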 Calls of active or inactive are those of the source. Rule as the data show it: active = GI50 up to about 1.1 µM and inactive = higher.

Legend:
Experiment in all cases: NCI tumour cell line growth inhibition, 48 h
HOP-92 = system: HOP-92
K562 = system: K562
T47D = system: T47D
UACC-257 = system: UACC-257
SF-268 = system: SF-268
NCI/ADR-RES = system: NCI/ADR-RES
TK-10 = system: TK-10
HL-60 = system: HL-60
RPMI-8226 = system: RPMI-8226
786-0 = system: 786-0
OVCAR-4 = system: OVCAR-4
BT-549 = system: BT-549
U-251 = system: U-251
LOX IMVI = system: LOX IMVI
EKVX = system: EKVX
SR = system: SR
SK-MEL-5 = system: SK-MEL-5
Malme-3M = system: Malme-3M
ACHN = system: ACHN
HT-29 = system: HT-29

CN(C)CCNC(=O)c1cccc2nc3cccc(F)c3nc12
GI50 (HOP-92): 1.22 µM (inactive) | GI50 (K562): 1.29 µM (inactive) | GI50 (T47D): 3.31 µM (inactive) | GI50 (UACC-257): 1.39 µM (inactive) | GI50 (SF-268): 2.31 µM (inactive) | GI50 (NCI/ADR-RES): 1.39 µM (inactive) | GI50 (TK-10): 2 µM (inactive) | GI50 (HL-60): 1.48 µM (inactive) | GI50 (RPMI-8226): 0.8 µM (active) | GI50 (786-0): 0.653 µM (active) | GI50 (OVCAR-4): 1.47 µM (inactive) | GI50 (BT-549): 2.23 µM (inactive) | GI50 (U-251): 1.38 µM (inactive) | GI50 (LOX IMVI): 0.614 µM (active) | GI50 (EKVX): 2.16 µM (inactive) | GI50 (SR): 0.57 µM (active) | GI50 (SK-MEL-5): 1.13 µM (inactive) | GI50 (Malme-3M): 2.04 µM (inactive) | GI50 (ACHN): 0.484 µM (active) | GI50 (HT-29): 0.867 µM (active)

CC(C)(C)c1cc(OCc2nnc3sc(-c4ccc(Cl)cc4)nn23)c(Cl)cc1OCc1nnc2sc(-c3ccc(Cl)cc3)nn12
GI50 (HOP-92): 0.895 µM (active) | GI50 (K562): 1.95 µM (inactive) | GI50 (T47D): 1.97 µM (inactive) | GI50 (UACC-257): 11.5 µM (inactive) | GI50 (SF-268): 6.97 µM (inactive) | GI50 (NCI/ADR-RES): 2.01 µM (inactive) | GI50 (TK-10): 8.47 µM (inactive) | GI50 (HL-60): 2.46 µM (inactive) | GI50 (RPMI-8226): 3.56 µM (inactive) | GI50 (786-0): 3.97 µM (inactive) | GI50 (OVCAR-4): 3.98 µM (inactive) | GI50 (BT-549): 4.7 µM (inactive) | GI50 (U-251): 5.79 µM (inactive) | GI50 (LOX IMVI): 5.04 µM (inactive) | GI50 (EKVX): 13.1 µM (inactive) | GI50 (SR): 0.315 µM (active) | GI50 (SK-MEL-5): 0.726 µM (active) | GI50 (Malme-3M): 2.93 µM (inactive) | GI50 (ACHN): 5.4 µM (inactive) | GI50 (HT-29): 30.8 µM (inactive)

N#Cc1c(-c2cccc(Cl)c2)cc(-c2ccc(Cl)cc2)nc1N
GI50 (HOP-92): 10.9 µM (inactive) | GI50 (K562): 34.4 µM (inactive) | GI50 (T47D): 27 µM (inactive) | GI50 (UACC-257): 15.3 µM (inactive) | GI50 (SF-268): 18.5 µM (inactive) | GI50 (NCI/ADR-RES): 22 µM (inactive) | GI50 (TK-10): 19.7 µM (inactive) | GI50 (HL-60): 38.1 µM (inactive) | GI50 (RPMI-8226): 18.1 µM (inactive) | GI50 (786-0): 17 µM (inactive) | GI50 (OVCAR-4): 15.7 µM (inactive) | GI50 (BT-549): 18.6 µM (inactive) | GI50 (U-251): 16.6 µM (inactive) | GI50 (LOX IMVI): 17.1 µM (inactive) | GI50 (EKVX): 15.6 µM (inactive) | GI50 (SR): 15.3 µM (inactive) | GI50 (SK-MEL-5): 16.1 µM (inactive) | GI50 (Malme-3M): 28.1 µM (inactive) | GI50 (ACHN): 17.7 µM (inactive) | GI50 (HT-29): 24.3 µM (inactive)

Oc1c(CN2CCCC2)ccc2cccnc12
GI50 (HOP-92): 26.4 µM (inactive) | GI50 (K562): > 33.5 µM (inactive) | GI50 (T47D): 23 µM (inactive) | GI50 (UACC-257): 29.3 µM (inactive) | GI50 (SF-268): 24 µM (inactive) | GI50 (NCI/ADR-RES): 2.38 µM (inactive) | GI50 (TK-10): 12.4 µM (inactive) | GI50 (HL-60): 4.94 µM (inactive) | GI50 (RPMI-8226): 16.7 µM (inactive) | GI50 (786-0): 17.9 µM (inactive) | GI50 (OVCAR-4): 14.9 µM (inactive) | GI50 (BT-549): 46.1 µM (inactive) | GI50 (U-251): 16.2 µM (inactive) | GI50 (LOX IMVI): 15.5 µM (inactive) | GI50 (EKVX): 12.3 µM (inactive) | GI50 (SR): 12.2 µM (inactive) | GI50 (SK-MEL-5): 12.7 µM (inactive) | GI50 (Malme-3M): 25.1 µM (inactive) | GI50 (ACHN): 3.55 µM (inactive) | GI50 (HT-29): 27.5 µM (inactive)
